From US20160002204A1 (Board of Regents, The University of Texas System, priority 2014, published 2016)
pEC50, pIC50: −log10 of the molar value. Values joined by “and” are separate entries in the source; they are usually repeats but may differ in a detail not shown here. Identical values can stand only once.

Tests used:
A549 cells = test: A549 proliferation (viability) assay, Cell Titer Fluor, 72 hours; type: cell-based; details: Homo sapiens
How it was run: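 Seed A549 at 1000 cells/well and culture 24 h. Add compound (final DMSO 0.5%) and incubate 72 h at 37 °C. Add Cell Titer Fluor, mix 15 min, incubate 30 min, read fluorescence and fit EC50 by four-parameter logistic.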

[1] = target: T1, GLS1 (purified recombinant human GAC) (Homo sapiens, UniProt O94925); test: GLS1 enzymatic activity assay (dual-coupled, Amplex UltraRed/resorufin); type: biochemical
T1 sequence (O94925 55-598 isoform O94925-3 limits assumed): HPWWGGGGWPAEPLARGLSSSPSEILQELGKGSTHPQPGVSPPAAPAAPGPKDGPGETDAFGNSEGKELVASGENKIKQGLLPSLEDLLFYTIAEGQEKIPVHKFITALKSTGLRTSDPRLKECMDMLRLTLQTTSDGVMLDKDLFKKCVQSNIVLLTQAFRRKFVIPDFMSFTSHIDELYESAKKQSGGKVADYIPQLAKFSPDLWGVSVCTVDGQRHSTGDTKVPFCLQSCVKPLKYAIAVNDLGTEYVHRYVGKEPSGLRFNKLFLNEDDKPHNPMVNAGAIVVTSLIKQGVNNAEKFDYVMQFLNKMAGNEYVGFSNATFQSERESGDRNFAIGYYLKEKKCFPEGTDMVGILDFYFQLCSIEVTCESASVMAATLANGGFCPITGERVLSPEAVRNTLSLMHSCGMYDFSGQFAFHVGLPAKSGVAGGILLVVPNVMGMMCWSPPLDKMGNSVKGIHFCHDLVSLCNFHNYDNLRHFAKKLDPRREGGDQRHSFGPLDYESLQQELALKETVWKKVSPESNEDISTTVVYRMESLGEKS
How it was run: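 Recombinant human GAC (2 nM) preincubated with 50 mM potassium phosphate, then inhibitor (10 min each, RT); 1 mM glutamine, pH 7.4 Hepes buffer, 1% DMSO. Glutamate coupled via glutamate oxidase/HRP to resorufin (Ex 530/Em 590), kinetic or 20-min endpoint; IC50 by four-parameter logistic fit.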

SMILES | pEC50 (A549 cells) | pIC50 [1]
CCOC(=O)N1CCN(CC(=O)Nc2ccn(CCC(F)Cn3cc(C(=O)NCc4cccc(OC(F)(F)F)c4)nn3)c(=O)c2F)CC1 (stereo not drawn) [Example 292, ethyl 4-{[(3-fluoro-1-{3-fluoro-4-[4-({[3-(trifluoro-methoxy)phenyl]methyl}carbamoyl)-1H-1,2,3-triazol-1-yl]butyl}-2-oxo-1,2-dihydropyridin-4-yl)carbamoyl]methyl}piperazine-1-carboxylate] | > 7.00 | > 7.00
CC(C)(C)OC(=O)N1CCN(CC(=O)Nc2ccn(CCC(F)Cn3cc(C(N)=O)nn3)c(=O)c2)CC1 (stereo not drawn) [Example 407, tert-butyl 4-[({1-[4-(4-carbamoyl-1H-1,2,3-triazol-1-yl)-3-fluorobutyl]-2-oxo-1,2-dihydropyridin-4-yl}carbamoyl)methyl]piperazine-1-carboxylate] | < 5.30 | 5.30 to 6.30
Nc1ccn(CCC(F)Cn2cc(C(=O)NCc3cc(OC(F)(F)F)ccc3F)nn2)c(=O)c1F (stereo not drawn) [Example 430, 1-[4-(4-amino-3-fluoro-2-oxo-1,2-dihydropyridin-1-yl)-2-fluorobutyl]-N-{[2-fluoro-5-(trifluoromethoxy)phenyl]methyl}-1H-1,2,3-triazole-4-carboxamide] | < 5.30 | 5.30 to 6.30
CC(C)CC(=O)Nc1ccn(CCCCn2cc(C(=O)NCc3cccnc3)nn2)c(=O)c1 [Example 37, 1-{4-[4-(3-methylbutanamido)-2-oxo-1,2-dihydropyridin-1-yl]butyl}-N-(pyridin-3-ylmethyl)-1H-1,2,3-triazole-4-carboxamide] | < 5.30 | 5.30 to 6.30
O=C(Nc1ccn(CCCCc2nnc(C(=O)NCc3ccccn3)s2)c(=O)n1)OCc1ccccc1 [Example 120, benzyl N-[2-oxo-1-(4-{5-[(pyridin-2-ylmethyl)carbamoyl]-1,3,4-thiadiazol-2-yl}butyl)-1,2-dihydropyrimidin-4-yl]carbamate] | 5.30 to 6.30 | 5.30 to 6.30 and 6.30 to 7.00
O=C(CC1CCCCC1)Nc1ccn(CCC(F)Cn2cc(C(=O)NCc3ccc(C(F)(F)F)nc3)nn2)c(=O)c1F (stereo not drawn) [Example 260, 1-{4-[4-(2-cyclohexylacetamido)-3-fluoro-2-oxo-1,2-dihydropyridin-1-yl]-2-fluorobutyl}-N-{[6-(trifluoromethyl)pyridin-3-yl]methyl}-1H-1,2,3-triazole-4-carboxamide] | > 7.00 | > 7.00
CC(C(=O)Nc1ccn(CCC(F)Cn2cc(C(=O)NCc3cccc(OC(F)(F)F)c3)nn2)c(=O)c1F)c1ccccc1 (stereo not drawn) [Example 316, 1-{2-fluoro-4-[3-fluoro-2-oxo-4-(2-phenylpropanamido)-1,2-dihydropyridin-1-yl]butyl}-N-{[3-(trifluoromethoxy)phenyl]methyl}-1H-1,2,3-triazole-4-carboxamide] | > 7.00 | > 7.00
CC(=O)Nc1ccn(CCCCn2cc(C(=O)NCc3cccc(OC(F)(F)F)c3)nn2)c(=O)c1 [Example 50, 1-[4-(4-acetamido-2-oxo-1,2-dihydropyridin-1-yl)butyl]-N-{[3-(trifluoromethoxy)phenyl]methyl}-1H-1,2,3-triazole-4-carboxamide] | < 5.30 | 5.30 to 6.30
O=C(Nc1ccn(CCC(F)Cn2cc(C(=O)NCc3cc(C(F)(F)F)ccn3)nn2)c(=O)n1)OC1CCC(F)(F)CC1 (stereo not drawn) [Example 495, 4,4-difluorocyclohexyl N-(1-{3-fluoro-4-[4-({[4-(trifluoromethyl)pyridin-2-yl]methyl}carbamoyl)-1H-1,2,3-triazol-1-yl]butyl}-2-oxo-1,2-dihydropyrimidin-4-yl)carbamate] | 5.30 to 6.30 | > 7.00
CCOC(=O)c1cn(CC(F)CCn2ccc(NC(=O)OC(C)(C)C)c(F)c2=O)nn1 (stereo not drawn) [Example 311, ethyl 1-[4-(4-{[(tert-butoxy)carbonyl]amino}-3-fluoro-2-oxo-1,2-dihydropyridin-1-yl)-2-fluorobutyl]-1H-1,2,3-triazole-4-carboxylate] | < 5.30 | 5.30 to 6.30
CC(C)OC(=O)Nc1ccn(CCC(F)Cn2cc(C(=O)NCc3cccc(OC(F)(F)F)c3)nn2)c(=O)c1F (stereo not drawn) [Example 354] | > 7.00 | > 7.00
O=C(CC1CCC1)Nc1ccn(CCC(F)Cn2cc(C(=O)NCc3cccc(C(F)(F)F)n3)nn2)c(=O)c1F (stereo not drawn) [Example 336, 1-{4-[4-(2-cyclobutylacetamido)-3-fluoro-2-oxo-1,2-dihydropyridin-1-yl]-2-fluorobutyl}-N-{[6-(trifluoromethyl)pyridin-2-yl]methyl}-1H-1,2,3-triazole-4-carboxamide] | > 7.00 | > 7.00
O=C(Nc1ccn(CCC(F)Cn2cc(C(=O)NCc3cc(C(F)(F)F)ccn3)nn2)c(=O)n1)OC1CCC1 (stereo not drawn) [Example 410, cyclobutyl N-(1-{3-fluoro-4-[4-({[4-(trifluoromethyl)pyridin-2-yl]methyl}carbamoyl)-1H-1,2,3-triazol-1-yl]butyl}-2-oxo-1,2-dihydropyrimidin-4-yl)carbamate] | 5.30 to 6.30 | 6.30 to 7.00
O=C(Cc1cccs1)Nc1ccn(CCCCn2cc(C(=O)NCc3cccc(OC(F)(F)F)c3)nn2)c(=O)c1 [Example 202, 1-(4-{2-oxo-4-[2-(thiophen-2-yl)acetamido]-1,2-dihydropyridin-1-yl}butyl)-N-{[3-(trifluoromethoxy)phenyl]methyl}-1H-1,2,3-triazole-4-carboxamide] | 6.30 to 7.00 | > 7.00
O=C(Cc1ccccc1)Nc1ccn(CCC(F)Cn2cc(C(=O)NCc3cccc(OC(F)(F)F)c3)nn2)c(=O)c1F (stereo not drawn) [Example 180] | > 7.00 | > 7.00
O=C(Cc1ccccc1)Nc1ccn(CCCCCc2nnc(NC(=O)Cc3ccccc3)s2)c(=O)n1 [Example 74, N-(2-oxo-1-{5-[5-(2-phenylacetamido)-1,3,4-thiadiazol-2-yl]pentyl}-1,2-dihydropyrimidin-4-yl)-2-phenylacetamide] | < 5.30 | 5.30 to 6.30
CC(C)CNC(=O)Nc1nnc(CCCCn2ccc(NC(=O)CC3CCCC3)c(F)c2=O)s1 [Example 128, 2-cyclopentyl-N-(3-fluoro-1-(4-(5-(3-isobutylureido)-1,3,4-thiadiazol-2-yl)butyl)-2-oxo-1,2-dihydropyridin-4-yl)acetamide] | < 5.30 | 6.30 to 7.00
O=C(NCc1cccc(OC(F)(F)F)c1)c1cn(CC(F)CCn2ccc(NC(=O)C3CCCC3)c(F)c2=O)nn1 (stereo not drawn) [Example 342, 1-[4-(4-cyclopentaneamido-3-fluoro-2-oxo-1,2-dihydropyridin-1-yl)-2-fluorobutyl]-N-{[3-(trifluoromethoxy)phenyl]methyl}-1H-1,2,3-triazole-4-carboxamide] | > 7.00 | > 7.00
Cc1ccc(CNC(=O)c2cn(CCC(F)Cn3ccc(NC(=O)Cc4ccccc4)cc3=O)nn2)cn1 (stereo not drawn) [Example 148, 1-{3-fluoro-4-[2-oxo-4-(2-phenylacetamido)-1,2-dihydropyridin-1-yl]butyl}-N-[(6-methylpyridin-3-yl)methyl]-1H-1,2,3-triazole-4-carboxamide] | 5.30 to 6.30 | > 7.00
O=C(CN1CCCC(F)C1)Nc1ccn(CCC(F)Cn2cc(C(=O)NCc3cccc(OC(F)(F)F)c3)nn2)c(=O)c1 (stereo not drawn) [Example 275, 1-(2-fluoro-4-{4-[2-(3-fluoropiperidin-1-yl)acetamido]-2-oxo-1,2-dihydropyridin-1-yl}butyl)-N-{[3-(trifluoromethoxy)phenyl]methyl}-1H-1,2,3-triazole-4-carboxamide] | > 7.00 | > 7.00
CC(C)COC(=O)Nc1ccn(CCC(F)Cn2cc(C(=O)NCc3cc(C(F)(F)F)ccn3)nn2)c(=O)n1 (stereo not drawn) [Example 490, 2-methylpropyl N-(1-{3-fluoro-4-[4-({[4-(trifluoromethyl)pyridin-2-yl]methyl}carbamoyl)-1H-1,2,3-triazol-1-yl]butyl}-2-oxo-1,2-dihydropyrimidin-4-yl)carbamate] | 6.30 to 7.00 | > 7.00
O=C(Cc1ccccc1)Nc1ccn(CCCCn2cc(C(=O)NCc3ncccc3F)nn2)c(=O)c1 [Example 147, N-[(3-fluoropyridin-2-yl)methyl]-1-{4-[2-oxo-4-(2-phenylacetamido)-1,2-dihydropyridin-1-yl]butyl}-1H-1,2,3-triazole-4-carboxamide] | < 5.30 | 6.30 to 7.00
O=C(CC1CCCC1)Nc1cnn(CCC(F)Cn2cc(C(=O)NCc3cccc(OC(F)(F)F)c3)nn2)c(=O)c1 (stereo not drawn) [Example 386, 1-(4-(4-(2-cyclopentylacetamido)-6-oxopyridazin-1(6H)-yl)-2-fluorobutyl)-N-(3-(trifluoromethoxy)benzyl)-1H-1,2,3-triazole-4-carboxamide] | 6.30 to 7.00 | > 7.00
O=C(CN1CCC(F)(F)CC1)Nc1ccn(CCC(F)Cn2cc(C(=O)NCc3cccc(OC(F)(F)F)c3)nn2)c(=O)c1F (stereo not drawn) [Example 290, 1-(4-{4-[2-(4,4-difluoropiperidin-1-yl)acetamido]-3-fluoro-2-oxo-1,2-dihydropyridin-1-yl}-2-fluorobutyl)-N-{[3-(trifluoromethoxy)phenyl]methyl}-1H-1,2,3-triazole-4-carboxamide] | > 7.00 | > 7.00
